Five compounds from patent publication US11000033B2, “Ketone or oxime compound, and herbicide” (NISSAN CHEMICAL CORPORATION, priority 2014, dated 2021) can be followed below.

Holding throughout (format): in vivo
The test system of data set [1] is directly sowed rice plant. The experiment in a line: Test Example 3: effect on crop by foliage application, Wagner pot (symbol b). The conditions noted are these: application herbicide amount 320 g/ha; for b (directly sowed rice plant) effect on crop grade: Table 24. An outline of the steps:
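Steps: fill a 1/10000-are Wagner pot with alluvial soil; add water and mix to submerge at 0.1–0.5 cm depth; sow rice plus Echinochloa crus-galli var. crus-galli, Leptochloa chinensis and Cyperus difformis; grow in a 25–30 °C greenhouse.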

Data set [2] deals with Amaranthus retroflexus. The experiment in a line: Test Example 4: herbicidal effect by soil treatment (symbol N). The procedure, abridged:
(§1)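 Seeds were sown in sterilized diluvial soil, covered with about 1.5 cm of soil, and the soil surface was sprayed with a water-diluted emulsion of the compound at a predetermined rate. Plants grew in a greenhouse at 25° C. to 30° C.; effects were scored visually 3 weeks after application.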

Data set [3] has as its system Monochoria vaginalis. Nature of the data set: Test Example 1: herbicidal activity, application before weed generation in submerged conditions (symbol C). Conditions: application herbicide amount 320 g/ha. The procedure, abridged: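 Flooded alluvial soil (4 cm water) was mixed-sown with the three weed species, and 2.5-leaf rice seedlings were transplanted. On sowing day, a water-diluted emulsion at a predetermined rate was applied to the water surface. After 3 weeks in a 25–30 °C greenhouse, effect was scored 0–5.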

Data set [4] deals with transplanted rice plant. Nature of the data set: Test Example 1: effect on crop, application before weed generation in submerged conditions (symbol a). The conditions noted are these: application herbicide amount 320 g/ha. An outline of the steps: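 Alluvial soil pots flooded to 4 cm water, sown with Echinochloa oryzacola, Scirpus juncoides and Monochoria vaginalis, then transplanted with 2.5 leaf stage rice seedlings; pre-emergence application. Greenhouse 25° C. to 30° C.; scored 0–5 by herbicidal ratio 3 weeks after application.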

Data set [5] concerns Apera spica-venti. Nature of the data set: Test Example 5: herbicidal effect by foliage application, plastic box (symbol L). Conditions: 320 g/ha, 3 weeks after application. The procedure, abridged:
(§2)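 Sowing in sterilized diluvial soil, 14 days' greenhouse growth at 25° C. to 30° C., then uniform small-sprayer foliar application of aqueous emulsion dilution; plants scored three weeks afterwards.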

The subject of data set [6] is corn. Nature of the data set: Test Example 5: effect on crop by foliage application, plastic box (symbol c). Conditions: 320 g/ha, 3 weeks after application. The procedure, abridged:
(§3)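 Seeds were sown in spots in sterilized diluvial soil held in a plastic box 21 cm × 13 cm × 7 cm deep, covered with about 1.5 cm of soil, and grown in a greenhouse at 25° C. to 30° C.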

The subject of data set [7] is wheat. The experiment in a line: Test Example 5: effect on crop by foliage application, plastic box (symbol e). The conditions noted are these: 320 g/ha, 3 weeks after application. An outline of the steps: as §3
Data set [8] deals with Leptochloa chinensis. Nature of the data set: Test Example 3: herbicidal effect by foliage application, Wagner pot (symbol D). The conditions noted are these: application herbicide amount 320 g/ha; for D (Leptochloa chinensis) herbicidal effect grade: Table 24. An outline of the steps:
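Weeds and rice were sown in alluvial soil under 0.1–0.5 cm of standing water and grown for 14 days in a 25–30 °C greenhouse. An emulsion of the compound, diluted in water to a set dose, was sprayed evenly onto the foliage. Effect was scored against fixed criteria 3 weeks after treatment.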

Data set [9] relates to Digitaria ciliaris. The experiment in a line: Test Example 4: herbicidal effect by soil treatment (symbol F). An outline of the steps: as §1
For data set [10], the system named is Galium spurium. The experiment in a line: Test Example 5: herbicidal effect by foliage application, plastic box (symbol Q). The conditions noted are these: 320 g/ha, 3 weeks after application. The procedure, abridged:
as §2

Data set [11] deals with rapeseed. The experiment in a line: Test Example 4: effect on crop by soil treatment (symbol g). The conditions noted are these: for g: rapeseed, effect grade on crop: 320 g/ha. An outline of the steps: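 Steps: fill box with sterilized diluvial soil; sow seed spot-like; cover with ~1.5 cm soil; grow in greenhouse (25° C. to 30° C.).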
Data set [12] has as its system beet. Nature of the data set: Test Example 5: effect on crop by foliage application, plastic box (symbol f). Conditions: 320 g/ha, 3 weeks after application. The procedure, abridged: as §3
In data set [13] the test system is Abutilon theophrasti. Nature of the data set: Test Example 4: herbicidal effect by soil treatment (symbol M). The procedure, abridged: as §1
[14] abbreviates: application herbicide amount 320 g/ha.

In the case of `CC(CC1CC(O)=C(c2c(C)cc(C)cc2C)C1=O)=NOCc1cccc(Cl)c1` (centres unmarked) [1-114], the “effect on crop b (directly sowed rice plant), grade 0-5” value (from here on “effect on crop b”) in data set [1] was 5 (Herbicidal ratio of 90% or more (almost completely withered)). For the same compound, in data set [2] (320 g/ha), the “N: Amaranthus retroflexus, herbicidal effect grade” value is recorded as 0 (Herbicidal ratio of 5% or lower (almost no effect)). Moreover, the “Herbicidal effect grade, C: Monochoria vaginalis” value (shortened to “Herbicidal effect grade, C”) in [3] was 5 (Herbicidal ratio of 90% or more (almost completely withered)). In data set [4], the “Effect grade on crop, a: transplanted rice plant” value was 5 (Herbicidal ratio of 90% or more (almost completely withered)). The “L: Apera spica-venti, herbicidal effect (criteria 0-5)” value in [5] is given as 5 (Herbicidal ratio of 90% or more (almost completely withered)). Moreover, in data set [6], the “c: corn, effect on crop (criteria 0-5)” value was 1 (Herbicidal ratio of 5% or higher and lower than 20%). Further, in data set [7], the “e: wheat, effect on crop (criteria 0-5)” value is 4 (Herbicidal ratio of 70% or higher and lower than 90%). In addition, the “herbicidal effect on D (Leptochloa chinensis), grade 0-5” value (“herbicidal effect on D” below) in [8] was 5 (Herbicidal ratio of 90% or more (almost completely withered)). In addition, in data set [9] (320 g/ha), the “F: Digitaria ciliaris, herbicidal effect grade” value is listed as 5 (Herbicidal ratio of 90% or more (almost completely withered)). Besides, the “Q: Galium spurium, herbicidal effect (criteria 0-5)” value in data set [10] is 0 (Herbicidal ratio of 5% or lower (almost no effect)). Besides, in data set [11], the “g: rapeseed, effect grade on crop” value is 1 (Herbicidal ratio of 5% or higher and lower than 20%). Also, the “f: beet, effect on crop (criteria 0-5)” value in data set [12] is on record as 0 (Herbicidal ratio of 5% or lower (almost no effect)). Moreover, the “M: Abutilon theophrasti, herbicidal effect grade” value in data set [13] (320 g/ha) is 0 (Herbicidal ratio of 5% or lower (almost no effect)).

For `CCC(CC1CC(O)=C(c2c(C)cc(-c3ccccc3)cc2OC)C1=O)=NOC` (mixture of isomers) [13-004], the “b (directly sowed rice plant) effect on crop grade” value in data set [1] is given as 5 (Herbicidal ratio of 90% or more (almost completely withered)). Also, in [2] (setting [14]), the “N: Amaranthus retroflexus, herbicidal effect grade” value was 4 (Herbicidal ratio of 70% or higher and lower than 90%). Further, the “C (Monochoria vaginalis) herbicidal effect grade” value in data set [3] is reported as 5 (Herbicidal ratio of 90% or more (almost completely withered)). In data set [4], the “a (transplanted rice plant) effect on crop grade” value was 5 (Herbicidal ratio of 90% or more (almost completely withered)). Also, the “L: Apera spica-venti, herbicidal effect grade” value in data set [5] is 5 (Herbicidal ratio of 90% or more (almost completely withered)). In addition, the “c: corn, effect on crop grade” value in data set [6] is given as 5 (Herbicidal ratio of 90% or more (almost completely withered)). In data set [7], the “e: wheat, effect on crop grade” value is given as 5 (Herbicidal ratio of 90% or more (almost completely withered)). The “D (Leptochloa chinensis) herbicidal effect grade” value in data set [8] is 5 (Herbicidal ratio of 90% or more (almost completely withered)). Also, the “F: Digitaria ciliaris, herbicidal effect grade” value in data set [9] (setting [14]) was 5 (Herbicidal ratio of 90% or more (almost completely withered)). In addition, the “Q: Galium spurium, herbicidal effect grade” value in data set [10] was 4 (Herbicidal ratio of 70% or higher and lower than 90%). For the same compound, in data set [11] (setting [14]), the “g: rapeseed, effect on crop grade” value was 4 (Herbicidal ratio of 70% or higher and lower than 90%). Moreover, the “f: beet, effect on crop grade” value in data set [12] is reported as 0 (Herbicidal ratio of 5% or lower (almost no effect)). Also, in data set [13] (setting [14]), the “M: Abutilon theophrasti, herbicidal effect grade” value is 0 (Herbicidal ratio of 5% or lower (almost no effect)).

Regarding `CC#Cc1cc(C)c(C2=C(O)CC(CC(C)=NOCC(F)(F)F)C2=O)c(C)c1` (centres unmarked) [9-011], the “b (directly sowed rice plant) effect on crop grade” value in data set [1] is recorded as 5 (Herbicidal ratio of 90% or more (almost completely withered)). Further, in [2] (setting [14]), the “Herbicidal effect grade, N: Amaranthus retroflexus” value is 0 (Herbicidal ratio of 5% or lower (almost no effect)). Besides, in data set [3], the “C (Monochoria vaginalis) herbicidal effect grade” value was 4 (Herbicidal ratio of 70% or higher and lower than 90%). The “a (transplanted rice plant) effect on crop grade” value in [4] is recorded as 5 (Herbicidal ratio of 90% or more (almost completely withered)). The “L: Apera spica-venti, herbicidal effect grade” value in data set [5] is on record as 5 (Herbicidal ratio of 90% or more (almost completely withered)). The “c: corn, effect on crop grade” value in [6] is 5 (Herbicidal ratio of 90% or more (almost completely withered)). In addition, in [7], the “e: wheat, effect on crop grade” value is 5 (Herbicidal ratio of 90% or more (almost completely withered)). Moreover, in data set [8], the “D (Leptochloa chinensis) herbicidal effect grade” value was 5 (Herbicidal ratio of 90% or more (almost completely withered)). The “Herbicidal effect grade, F: Digitaria ciliaris” value in data set [9] (setting [14]) is listed as 5 (Herbicidal ratio of 90% or more (almost completely withered)). In addition, the “Q: Galium spurium, herbicidal effect grade” value in data set [10] is 1 (Herbicidal ratio of 5% or higher and lower than 20%). Also, in [11] (setting [14]), the “Effect on crop grade, g: rapeseed” value was 4 (Herbicidal ratio of 70% or higher and lower than 90%). In [12], the “f: beet, effect on crop grade” value is 0 (Herbicidal ratio of 5% or lower (almost no effect)). Further, the “Herbicidal effect grade, M: Abutilon theophrasti” value in [13] (setting [14]) is 3 (Herbicidal ratio of 40% or higher and lower than 70%).

For `CON=C(C)CC1CC(OC(=O)C(C)(C)C)=C(c2c(C)cc(C)cc2C)C1=O` (centres unmarked) [1-004, 2-mesityl-4-{2-(methoxyimino)propyl}-3-oxocyclopent-1-en-1-yl pivalate], the “effect on crop b” value in data set [1] was 5 (Herbicidal ratio of 90% or more (almost completely withered)). Further, the “N (Amaranthus retroflexus) herbicidal effect grade” value in data set [2] (setting [14]) is 5 (Herbicidal ratio of 90% or more (almost completely withered)). Further, the “Herbicidal effect grade, C” value in [3] is 4 (Herbicidal ratio of 70% or higher and lower than 90%). The “Effect grade on crop, a: transplanted rice plant” value in data set [4] is 5 (Herbicidal ratio of 90% or more (almost completely withered)). Besides, the “L: Apera spica-venti, herbicidal effect grade” value in [5] is reported as 5 (Herbicidal ratio of 90% or more (almost completely withered)). For the same compound, in data set [6], the “c: corn, effect on crop grade” value was 5 (Herbicidal ratio of 90% or more (almost completely withered)). Also, in [7], the “e: wheat, effect on crop grade” value is on record as 5 (Herbicidal ratio of 90% or more (almost completely withered)). In addition, in [8], the “herbicidal effect on D” value is 5 (Herbicidal ratio of 90% or more (almost completely withered)). Further, the “F (Digitaria ciliaris) herbicidal effect grade” value in data set [9] (setting [14]) is on record as 5 (Herbicidal ratio of 90% or more (almost completely withered)). For the same compound, in data set [10], the “Q: Galium spurium, herbicidal effect grade” value is 3 (Herbicidal ratio of 40% or higher and lower than 70%). Moreover, in data set [11] (setting [14]), the “g (rapeseed) effect on crop grade” value was 4 (Herbicidal ratio of 70% or higher and lower than 90%). In data set [12], the “f: beet, effect on crop grade” value was 3 (Herbicidal ratio of 40% or higher and lower than 70%). Moreover, in data set [13] (setting [14]), the “M (Abutilon theophrasti) herbicidal effect grade” value is 5 (Herbicidal ratio of 90% or more (almost completely withered)).

On to `CC(CC1CC(O)=C(c2c(C)cc(C)cc2C)C1=O)=NOCCS(C)(=O)=O` (centres unmarked) [1-110], for which, in [1], the “effect on crop b” value is given as 5 (Herbicidal ratio of 90% or more (almost completely withered)). Besides, in data set [2] (320 g/ha), the “N: Amaranthus retroflexus, herbicidal effect grade” value was 0 (Herbicidal ratio of 5% or lower (almost no effect)). Moreover, in data set [3], the “Herbicidal effect grade, C” value was 0 (Herbicidal ratio of 5% or lower (almost no effect)). The “Effect grade on crop, a: transplanted rice plant” value in [4] is 5 (Herbicidal ratio of 90% or more (almost completely withered)). The “L: Apera spica-venti, herbicidal effect (criteria 0-5)” value in [5] was 5 (Herbicidal ratio of 90% or more (almost completely withered)). The “c: corn, effect on crop (criteria 0-5)” value in [6] was 5 (Herbicidal ratio of 90% or more (almost completely withered)). Also, the “e: wheat, effect on crop (criteria 0-5)” value in data set [7] is listed as 5 (Herbicidal ratio of 90% or more (almost completely withered)). The “herbicidal effect on D” value in data set [8] is 5 (Herbicidal ratio of 90% or more (almost completely withered)). In data set [9] (320 g/ha), the “F: Digitaria ciliaris, herbicidal effect grade” value is 5 (Herbicidal ratio of 90% or more (almost completely withered)). The “Q: Galium spurium, herbicidal effect (criteria 0-5)” value in data set [10] was 3 (Herbicidal ratio of 40% or higher and lower than 70%). Moreover, the “g: rapeseed, effect grade on crop” value in data set [11] is 1 (Herbicidal ratio of 5% or higher and lower than 20%). Besides, in [12], the “f: beet, effect on crop (criteria 0-5)” value is 0 (Herbicidal ratio of 5% or lower (almost no effect)). In data set [13] (320 g/ha), the “M: Abutilon theophrasti, herbicidal effect grade” value was 0 (Herbicidal ratio of 5% or lower (almost no effect)).
